Consider nine molecules from paper PMC8802628, “Selective activation of PFKL suppresses the phagocytic oxidative burst” (Cell, 2021).

Positions count from the first letter of the chain named.

Assay [1] relates to PMNs. As to the kind of experiment: NADPH/NADP+ detection assay in neutrophils. It is filed as cell-based, human. Particulars: PMA 30 min, then apocynin. As for the experimental part: The ratio of NADPH/NADP^+ (or NADH/NAD^+) was calculated after measuring the individual concentrations of NADPH and NADP^+ (or NADH and NAD^+) with NADP/NADPH-Glo (or NAD/NADH-Glo) assays (Promega). […] Cells were lysed in plates by addition of 1% dodecyltrimethylammonium bromide (DTAB). To measure NADPH, half of the samples was heated at 60 °C for 30 min. The other half was treated with HCl before heating to 60°C, to measure NADP^+. All samples were neutralized before adding luciferase detection reagent, then incubated for 1 h with gentle shaking. Luminescence was recorded on a plate reader (Envision).

Assay [2] concerns the target T1, PFKL (Homo sapiens, UniProt P17858).
T1 construct: made in house; host or cells: Sf9 insect cells (baculovirus, Bac-to-Bac)
T1 sequence (P17858 1-780): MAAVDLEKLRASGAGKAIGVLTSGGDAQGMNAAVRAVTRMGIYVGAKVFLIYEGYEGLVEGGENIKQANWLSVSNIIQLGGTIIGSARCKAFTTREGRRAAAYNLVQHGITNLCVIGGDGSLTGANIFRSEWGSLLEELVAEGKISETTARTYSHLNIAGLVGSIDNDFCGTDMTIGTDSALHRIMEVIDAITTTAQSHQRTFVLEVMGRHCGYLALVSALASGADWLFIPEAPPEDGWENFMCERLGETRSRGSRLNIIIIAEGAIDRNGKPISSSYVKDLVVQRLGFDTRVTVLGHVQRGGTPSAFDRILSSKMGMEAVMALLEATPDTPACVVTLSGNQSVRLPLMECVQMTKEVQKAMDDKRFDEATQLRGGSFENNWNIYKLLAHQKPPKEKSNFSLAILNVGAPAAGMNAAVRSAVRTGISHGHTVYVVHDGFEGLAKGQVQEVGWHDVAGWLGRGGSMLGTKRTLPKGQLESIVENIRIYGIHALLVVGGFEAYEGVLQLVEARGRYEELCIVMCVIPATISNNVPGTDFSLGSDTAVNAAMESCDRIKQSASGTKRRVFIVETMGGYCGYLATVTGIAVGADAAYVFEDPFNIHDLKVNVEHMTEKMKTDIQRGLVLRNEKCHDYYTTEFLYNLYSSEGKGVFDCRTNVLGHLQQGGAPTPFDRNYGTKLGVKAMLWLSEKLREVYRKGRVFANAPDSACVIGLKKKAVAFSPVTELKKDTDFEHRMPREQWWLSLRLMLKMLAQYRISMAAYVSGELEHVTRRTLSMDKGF
As to the kind of experiment: Recombinant PFKL activity assay (relief of ATP inhibition). It is filed as biochemical. Particulars: at 3.1 mM ATP; F6P approximately twice the Km,F6P. The text has this:
(§1) Recombinant N-terminal His-tagged human PFKL (NP_002617), PFKM (NP_000280), and PFKP (NM_002627.4) were generated as described ([Webb et al., 2015], [2017]). Point mutants of PFK1 were generated using the QuikChange Lightning kit (Aligent).
(§2) His-tagged PFK1 was expressed and purified as described with slight modifications ([Webb et al., 2015], [2017]). Briefly, baculovirus was generated using the Bac-to-Bac Expression system (Invitrogen). PFK1 was expressed in 2-5 × 10^6 sf9 cells at a multiplicity of infection of two for 48 h. Cells were lysed in 20 mM HEPES, pH 7.5, 80 mM potassium phosphate, 1 mM 2-mercapentoethanol, 10% glycerol, 10 mM imidazole, and EDTA-free Protease Inhibitor Cocktail (Abcam) with a Dounce homogenizer. The soluble lysate was incubated with HisPur cobalt resin (ThermoFisher Scientific). The resin was washed with 5 bead volumes lysis buffer, 10 bead volumes lysis buffer containing 2 M NaCl, and 5 further bead volumes lysis buffer. PFK1 was eluted in lysis buffer containing 100 mM imidazole. Fractions containing protein were pooled, passed over a desalting column equilibrated in freezing buffer [20 mM HEPES pH 7.5, 1 mM DTT, 500 μM ammonium sulfate, 5% glycerol, 1 mM ATP, and 100 μM EDTA] and concentrated using an Amicon Ultracel-30K Centrifugal Filter Unit (MilliporeSigma). Protein was quantified using a Bradford Protein Assay kit (ThermoFisher Scientific), and aliquotes frozen in liquid nitrogen for storage at −80°C.
(§3) PFK1 activity was determined using the rate of FBP production via an auxiliary enzyme assay adapted to a 96-well format ([Brüser et al., 2012]; [Webb et al., 2015]). The auxiliary enzymes aldolase, triosephosphate isomerase, and glycerol phosphate dehydrogenase were purchased from MilliporeSigma as ammonium sulfate slurries and desalted using an Amicon Ultracel-10K Centrifugal Filter Unit. For assays containing FBP, the rate of ADP production was determined using the auxiliary enzymes pyruvate kinase (PK) and lactate dehydrogenase (LDH) (MilliporeSigma) in a buffer containing 250 μM phosphoenolpyruvic acid, […] NADH, 50 mM HEPES pH 7.5, 100 mM KCl, 1 mM DTT, and effector concentrations as described in the text. The temperature was equilibrated to 25°C for 5 min before initiating the reaction 10 mM MgCl2. Absorbance at 340 nm was measured using a Varioskan LUX Multimode microplate reader (ThermoFisher). Kinetic parameters were generated by nonlinear regression analysis using Prism (GraphPad Software) and are the mean of a minimum of three measurements from two independent preparations of protein. One unit of activity was defined as the amount of enzyme that catalyzed the formation of 1 μmol of fructose 1,6-bisphosphate per min at 25°C. Assays for PFKM were performed at pH 7.0 due to the pH-dependence of ATP inhibition ([Trivedi and Danforth, 1966]).

Assay [3] addresses T2, PFKL (K315R, V545L, and V582M), PFKL3Mut (Homo sapiens, UniProt P17858, K315R/V545L/V582M).
T2 construct: made in house; host or cells: Sf9 insect cells (baculovirus)
T2 sequence (P17858 1-780 K315R/V545L/V582M): T1 sequence (P17858 1-780) with K315R, V545L, V582M
As to the kind of experiment: Recombinant PFKL3Mut activity assay. It is filed as biochemical. Particulars: at 3.1 mM ATP; F6P approximately twice the Km,F6P.
Excerpt: as §1, §2, §3

Assay [4] concerns the target T3, PFKM+pocket (R315 to lysine) (Homo sapiens, UniProt P08237, R315K).
T3 construct: made in house; host or cells: Sf9 insect cells (baculovirus)
T3 sequence (P08237 1-780 R315K): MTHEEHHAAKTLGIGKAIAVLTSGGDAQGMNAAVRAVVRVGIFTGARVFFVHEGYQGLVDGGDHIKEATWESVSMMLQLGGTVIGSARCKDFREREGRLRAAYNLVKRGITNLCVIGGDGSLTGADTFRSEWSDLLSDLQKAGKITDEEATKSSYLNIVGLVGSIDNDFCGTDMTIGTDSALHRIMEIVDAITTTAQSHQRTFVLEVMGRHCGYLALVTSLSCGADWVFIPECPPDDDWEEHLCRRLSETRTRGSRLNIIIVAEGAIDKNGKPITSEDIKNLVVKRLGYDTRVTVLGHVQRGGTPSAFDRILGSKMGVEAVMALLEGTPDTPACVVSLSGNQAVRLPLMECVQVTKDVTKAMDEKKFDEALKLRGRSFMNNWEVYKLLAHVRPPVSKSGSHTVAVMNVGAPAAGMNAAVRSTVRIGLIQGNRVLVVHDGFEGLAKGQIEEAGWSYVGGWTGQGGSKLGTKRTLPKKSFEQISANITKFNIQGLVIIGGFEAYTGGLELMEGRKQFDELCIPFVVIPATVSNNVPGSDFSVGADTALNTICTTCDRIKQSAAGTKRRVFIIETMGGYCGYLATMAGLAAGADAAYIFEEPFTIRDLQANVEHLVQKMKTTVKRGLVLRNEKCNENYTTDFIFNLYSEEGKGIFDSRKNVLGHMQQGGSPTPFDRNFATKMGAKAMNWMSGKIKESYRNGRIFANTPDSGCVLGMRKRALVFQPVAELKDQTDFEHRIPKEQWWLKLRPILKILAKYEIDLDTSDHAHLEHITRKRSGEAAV
As to the kind of experiment: Recombinant PFKM+pocket activity assay. It is filed as biochemical. Conditions: at 4 mM ATP.
Excerpt: as §1, §2
as §3, with “Assays for PFKM were performed at pH 7.0 due to the pH-dependence of ATP inhibition ([Trivedi and Danforth, 1966]).” left out

Assay [5] deals with human peripheral blood neutrophils. As to the kind of experiment: NETosis assay in human neutrophils (SYTOX Green, DNA area). It is filed as cell-based. Conditions: PMA; SAR analogs compared to LDC7559. Here is the method:
Freshly purified neutrophils were plated at 6 × 10^3 cells/well in glass bottom 96-well plates (SensoPlate, Greiner Bio-One 82050-792) in the RPMI medium described above. Cells were pretreated with DMSO vehicle, 0.5 μM NA-11, 100 μM apocynin, 0.5 μM and 5 μM PALP, or 0.5 μM and 5 μM LDC7559 for 30 min, and then stimulated with 50 nM PMA, 1 μM f-MLP, 5 μg/mL cholesterol crystals, 10 μg/mL LPS, 25 μM nigericin, or 25 μM calcymicin (A23187) for 3 h (except in Figures S1A, 6A and S7C, where cells were stimulated for 4 h). Cells were fixed and permeabilized in 2.5% paraformaldehyde (PFA) and 0.02% Triton X-100 in PBS for 30 min. For quantification of NETosis, cells were stained with 150 nM SYTOX Green and imaged in a KEYENCE Fluorescence Microscope (KEYENCE, ZB-X800E) at 10 x magnification. For immunolabeling, fixed cells were blocked with 2% BSA for 1 h, and then stained with anti-CitH3 and anti-MPO antibodies at a dilution of 1/200 in 1% BSA in PBS. Images were taken at 60 x magnification using an ImageXpress Micro Confocal high-content imaging system (Molecular Devices).
Semi-automated analysis of both phase and fluorescence images of SYTOX Green-stained neutrophils used a specialized MATLAB algorithm. Total cells were counted by scoring phase standard deviation and radial symmetry. NETosis was classified in cells by measuring the DNA area in the fluorescence image and comparing with a select internal training set for each experiment. Unstimulated cells and PMA-stimulated, […] cells served as negative controls. PMA-stimulated cells served as a positive control. NET-forming cells are presented as a percentage of total cells.

The subject of assay [6] is PFK1. As to the kind of experiment: PFK1 activity in PMN lysates. Particulars: neutrophils treated with PMA, LPS, or cholesterol crystals. It is filed as cell-based, human. Here is the method: PFK1 activity assays from neutrophil lysates were modified from Abrantes et al., 2012. Briefly, neutrophils (10^7) were cultured with 0.5 μM NA-11 for 30 min, and then stimulated with 50 nM PMA, 5 μg/mL cholesterol crystals, 10 μg/mL LPS or 25 μM nigericin for 30 min. Cells were lysed in 10 mM PBS, 1% Triton X-100, and 1 x EDTA-free protease inhibitor cocktail on ice for 10 min. The soluble protein lysates were quantified by BCA assay (Pierce) and adjusted to 0.3125 mg/mL with lysis buffer. Lysate (80 μL) was mixed with 100 μL 2x enzyme cocktail solution (100 mM Tris-HCL pH7.4, 10 mM MgCl2, 0.5 mM ATP, 0.3 mM NADH, 1.35 units/mL Aldolase, 10 units/mL Triose phosphate isomerase, 4 units/mL glycerophosphate dehydrogenase, 20 mM ammonium sulfate) equilibrated to reach room temperature for 5 min. 20 μL of Fructose-6-phosphate (40 mM) was added and the reaction monitored for NADH decrease (absorbance at 340 nm) every 30 s for 30 min. Specific activity is in pmoles FBP per min per mg lysate.

`NC(=O)c1ccc(N)nc1` [6-aminonicotinamide, reference compound]: the “NADPH replenishment / turnover after apocynin” value in assay [1] is on record as “effectively blocked NADPH turnover”.
As to `Nc1ncnc2c1ncn2[C@@H]1O[C@H](COP(=O)(O)OP(=O)(O)OP(=O)(O)O)[C@@H](O)[C@H]1O` [ATP], the “ATP inhibition of wild-type PFKL” value in assay [2] is given as more than 80%. The “inhibition of mutant PFKL (PFKL3Mut)” value in assay [3] was more than 80%. Besides, the “inhibition of PFKM+pocket” value in assay [4] is given as more than 90%.
For `CC#CCC(=O)Nc1ccc2c(c1)OCc1cc(-c3ccccc3OC)nn1C2` [NA-2], in assay [5], the “inhibition of PMA-induced NETosis” value is listed as “no inhibitor activity”.
Turning to `COc1cccc(-c2cc3n(n2)Cc2ccc(NC(C)=O)cc2OC3)c1` [NA-6], in assay [5], the “inhibition of PMA-induced NETosis” value is listed as “slight increase in inhibitory activity”.
Turning to `COc1ccc(-c2cc3n(n2)Cc2ccc(NC(C)=O)cc2OC3)cc1` [NA-7], the “inhibition of PMA-induced NETosis” value in assay [5] was “slight increase in inhibitory activity”.
For `CC(=O)Nc1ccc2c(c1)OCc1cc(Br)nn1C2` [NA-8], in assay [5], the “inhibition of PMA-induced NETosis” value is “inactive”.
Consider `CC#CCC(=O)Nc1cccc(-c2cc3n(n2)Cc2ccc(NC(C)=O)cc2OC3)c1` [NA-9], for which, in assay [5], the “inhibition of PMA-induced NETosis” value is “largely tolerated”.
For the molecule `CC(=O)Nc1ccc2c(c1)OCc1cc(-c3cccc(C#CCCCO)c3)nn1C2` [NA-10], the “inhibition of PMA-induced NETosis” value in assay [5] is listed as “largely tolerated”.
On to “bisindolylmaleimide [reference compound]”, for which the “activation-induced reduction in PFK1 activity” value in assay [6] is “prevented the decrease in PFKL activity”.
